According to patent publication US10538515B2, “Isatin-derived compounds, use of the compounds for the treatment of AIDS and method of treatment using these compounds” (FUNDAÇÄO OSWALDO CRUZ, priority 2016, dated 2020):
Where two headings read alike, the source gives them in different places.

How the values were obtained:
[1] = biological target: T1, recombinant HIV-1 reverse transcriptase (RTHXB2) (Human immunodeficiency virus type 1 group M subtype B, UniProt P04585); assay: Reverse transcriptase inhibition activity (RDDP, [3H]dTTP incorporation); type: biochemical; details: for IS: CC50 / CI50
T1 construct: The enzyme is derived from a polyprotein encoded by the virus, processed by the viral protease
Experimental: Reverse Transcriptase Inhibition Activity
The RDDP activity was determined in 50 mM Tris HCl (pH 7.8), 6 mM MgCl2, 1 mM dithiothreitol, 50 mM KCl, 5 μM dTTP, […] poly (rA) oligo (dT) template primer (Pharmacia, Piscataway, N.J., USA) and 3 U of enzyme (one unit is the enzyme concentration incorporating dTTP […] per minute per mg of enzyme at 37° C. under standard conditions). The reaction isotope dilutions were prepared at 2 μCi of [3H] dTTP (49 Ci/mmol)/2,7μ dTTP. The reaction was initiated at 37° C., incubated for 30 minutes and halted with 0.5M EDTA. The precipitate was collected on Whatman 81 filter paper and washed with 0.1 M sodium phosphate. The incorporated nucleotides were measured by liquid scintillation. The 50% inhibitory concentration (Ciso) was determined by linear regression analysis of the dose-response curve obtained from experimental data. The polymerization reaction was conducted in the presence and absence of test substances, as well as the presence and absence of standards.
All tests were conducted on three separate occasions. At least three independent experiments were performed and triplicates were run for each concentration.

Cytotoxicity assay (MTT) = type: cell-based; details: human, 50% cytotoxic concentration, 72 hours, MTT, read-out: CC50
Experimental: The T-lymphocyte cell line (Suptl) was cultured in an RPMI 1640 medium (GIBICO). The cultures were supplemented with 10% Fetal Bovine Serum (SFB; HyClone, Logan, Utah, USA), 100 U/mL of penicillin and […] of streptomycin, and incubated at 37° C., in an atmosphere of 5% CO2. Virus stocks were prepared using the methodology described by Souza and Denizot (SOUZA, T. M. L; RODRIGUES, D. Q.; […], V. F.; MARQUES, I. P.; DE SOUZA, M. C. B. V.; […], I. C. P. P.; BOU-HABIB, D. C; FONTES, C. F. L. Characterization of HIV-1 enzyme reverse transcriptase inhibition by the compound 6-chloro-1.4-dihydro-4-oxo-1-(β-D-ribofuranosyl) quinoline-3-carboxylic acid through kinetic and in silico studies. Current HIV Research, v. 7, No 3, page 327-335, 2009. DENIZOT, F.; LANG, R. Rapid colorimetric assay for cell growth and survival. Modifications to the tetrazolium dye procedure giving improved sensitivity and reliability. The Journal of Immunological Methods, v. 89, No 2, page 271-277, 1986).
. They were then run through an MTT assay (3-(4,5-dimethylazol-2-yl)-2.5-diphenyl tetrazolium bromide) in order to analyze cell induction infeasibility. MTT is a colorimetric method that measures mitochondrial dehydrogenase activity based on the ability of live cells to reduce 3-(4,5-methylazol-2-yl)-2.5-diphenyl tetrazolium bromide salt in the product. A […] solution of 3-(4,5-dimethylthiazol-2-yl)-2.5-diphenyl tetrazolium bromide (1 mg/ml) (MTT, Sigma) was thus added to the cells, kept in Dulbecco's Modified Eagle's medium (DMEM) without serum. The MTT was removed after three hours and, after adding […] of isopropanol acid (0.04N HCl in isopropanol), the optical density (OD) was determined using a wavelength range of 570 to 690 nm, according to KUO et al (KUO, Y. C; CHEN, C. C; TSA, W. J.; HO, Y. H. Regulation of type 1 herpes simplex virus replication in vero cells by Psychotriaserpens: relationship to gene expression, DNA replication, and protein synthesis. Antiviral Research, v. 51, No 2, pages 95 to 109, 2001). The dye coloring has different optical densities, depending on mitochondrial metabolism after treating cells with different concentrations of the new derivatives or the absence thereof. The 50% cytotoxic concentration (CC50) was calculated through linear regression analysis from the dose-response curve obtained from experimental data.

[2] = Suptl cells (T-lymphocyte cell line)

Structure (SMILES)	IC50 [1] [µM]	RT enzyme inhibition activity compared with benchmarks (in words) [1]	CC50 at 72 h (Cytotoxicity assay (MTT); [2]) [µM]	CC50 at 72 h (Cytotoxicity assay (MTT)) [µM]	IS [1]
Cc1ccc2c(c1)C(=O)C(=O)N2Cc1cn(-c2ccc(S(=O)(=O)N(CC(C)C)CC(O)C(Cc3ccccc3)NC(=O)OC3CCOC3)cc2)nn1 [Ie, tetrahydrofuran-3-yl ((2S,3R)-3-hydroxy-4-(N-isobutyl-4-(4-((5-methyl-2.3-dioxoindolin-1-yl)methyl)-1H-1,2,3-triazole-1-yl)phenylsulfonamide)-1=phenylbutan-2-yl)carbamate]	0.9	more active than the nevirapine and tenofovir benchmarks	> 100		
CCOP(=O)(Cn1cc(CN2C(=O)C(O)(C#CC3CC3)c3ccccc32)nn1)OCC (centres unmarked) [IId]	3.5			> 100	
Cc1cn(C2CC(n3cc(CN4C(=O)C(O)(C#CC5CC5)c5cc(Cl)ccc54)nn3)C(CO)O2)c(=O)[nH]c1=O (centres unmarked) [IIc]	3.1		> 100		
CCOP(=O)(Cn1cc(CN2C(=O)C(=O)c3cc(C)ccc32)nn1)OCC [Ig, diethyl ((4-((5-methyl-2.3-dioxoindolin-1-yl)methyl)-1H-1,2,3-triazole-1-yl)methyl) phosphonate]	0.7	more active than the nevirapine and tenofovir benchmarks		2060	2,940
Cc1cn(C2CC(n3cc(CN4C(=O)C(=O)c5ccccc54)nn3)C(CO)O2)c(=O)[nH]c1=O (centres unmarked) [Ia, 1-((1-(2-(hydroxymethyl)-5-(5-methyl-2.4-dioxo-3.4-dihydropyrimidine-1(2H)-yl)tetrahydrofuran-3-yl)-1H-1,2,3-triazole-4-yl)methyl)indolin-2.3-dione]	2.5		> 100		
CCOP(=O)(Cn1cc(CN2C(=O)C(=O)c3ccccc32)nn1)OCC [If, diethyl ((4-((2.3-dioxoindolin-1-yl)methyl)-1H-1,2,3-triazole-1-yl)methyl) phosphonate]	1.3			2320	1,782
CCOP(=O)(Cn1cc(CN2C(=O)C(=O)c3cc(Cl)ccc32)nn1)OCC [Ih, diethyl ((4-((5-chloro-2.3-dioxoindolin-1-yl)methyl)-1H-1,2,3-triazole-1-yl)methyl) phosphonate]	1.2			> 100	
Cc1cn(C2CC(n3cc(CN4C(=O)C(=O)c5cc(Cl)ccc54)nn3)C(CO)O2)c(=O)[nH]c1=O (centres unmarked) [Ic, 5-chloro-1-((1-(2-(hydroxymethyl)-5-(5-methyl-2.4-dioxo-3.4-dihydropyrimidine-1(2H)-yl)tetrahydrofuran-3-yl)-1H-1,2,3-triazole-4-yl)methyl)indolin-2.3-dione]	1.9		> 100		
Cc1ccc2c(c1)C(O)(C#CC1CC1)C(=O)N2Cc1cn(C2CC(n3cc(C)c(=O)[nH]c3=O)OC2CO)nn1 (centres unmarked) [IIb, 1-(4-(4-((3-(cyclopropylethanol)-3-hydroxy-5-methyl-2-oxoindolin-1-yl)methyl)-1H-1,2,3-triazole-1-yl)-5-(hydroxymethyl)tetrahydrofuran-2-yl)-5-methylpyrimidine-2.4(1H,3H)-dione]	3.3		> 100		
Cc1cn(C2CC(n3cc(CN4C(=O)C(O)(C#CC5CC5)c5ccccc54)nn3)C(CO)O2)c(=O)[nH]c1=O (centres unmarked) [IIa]	2.1		> 100		
Cc1ccnc2c1NC(=O)c1cccnc1N2C1CC1 [Nevirapine, reference compound]			895		746
CC(C)CN(CC(O)C(Cc1ccccc1)NC(=O)OC1CCOC1)S(=O)(=O)c1ccc(-n2cc(CN3C(=O)C(=O)c4ccccc43)nn2)cc1 [Id, tetrahydrofuran-3-yl ((2S)3R)-4-(4-(4-((2.3-dioxoindolin-1-yl)methyl)-1H-1,2,3-triazole-1-yl)-N-isobutylphenylsulfonamide)-3-hydroxy-1-phenylbutan-2-yl) carbamate]	1.5		> 100		
O=C1Nc2ccc(Cl)cc2[C@@](C#CC2CC2)(C(F)(F)F)O1 [Efavirenz, reference compound]			88		
